Peptide text beside a SMILES is read from it. * marks the point of attachment. C16 diacid = O=C(O)CCCCCCCCCCCCCCC(=O)*; Palmitoyl = CCCCCCCCCCCCCCCC(=O)*

The target in the first assay is T1, human GIP receptor (Homo sapiens, UniProt P48546).
T1 construct: host or cells: COS-7, transient transfection (calcium phosphate), cDNA in pCMV-Script
T1 sequence (P48546 22-466): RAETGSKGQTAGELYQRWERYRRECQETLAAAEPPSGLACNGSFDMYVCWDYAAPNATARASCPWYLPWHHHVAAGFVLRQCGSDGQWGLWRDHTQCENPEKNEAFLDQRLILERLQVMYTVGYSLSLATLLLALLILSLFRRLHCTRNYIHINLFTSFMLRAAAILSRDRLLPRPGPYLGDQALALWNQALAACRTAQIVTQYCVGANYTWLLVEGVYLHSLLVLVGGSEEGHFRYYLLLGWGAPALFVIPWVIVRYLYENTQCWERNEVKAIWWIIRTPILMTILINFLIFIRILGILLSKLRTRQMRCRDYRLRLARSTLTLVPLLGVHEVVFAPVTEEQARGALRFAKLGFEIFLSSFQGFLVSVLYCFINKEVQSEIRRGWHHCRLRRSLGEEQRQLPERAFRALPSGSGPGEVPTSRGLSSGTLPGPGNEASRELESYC
Description: cAMP accumulation assay, agonism (ligand alone). The class given is cell-based. Conditions: COS-7, intrinsic cAMP activity; COS-7 cells; Table 1. As to the method:
COS-7 cells were cultured at 10% CO2 and 37° C. in Dulbecco's modified Eagle's medium 1885 supplemented with 10% fetal bovine serum, 2 mM glutamine, 180 units/ml penicillin, and 45 µg/ml streptomycin. Transient transfection of the COS-7 cells for cAMP accumulation and competition binding was performed using the calcium phosphate precipitation method with the addition of chloroquine^46-47.
Transient transfected COS-7 cells expressing the human GIP receptor were seeded in white 96-well plates with a density of 3.5*10^4/well. The day after, the cells were washed twice with Hepes buffered saline (HBS) buffer and incubated with HBS and 1 mM 3-isobutyl-1-methylxanthine (IBMX) for 30 min at 37° C. To test for agonistic properties, ligands were added and incubated for 30 min at 37° C. In order to test for antagonistic properties, the cells were preincubated with the antagonists for 10 min prior to the addition of the agonist and subsequent incubated for 20 additional min. The HitHunter™ cAMP XS assay (DiscoveRx) was carried out according to the manufacturer's instructions.
IC50, EC50, and Ki values were determined by nonlinear regression. These were carried out with the GraphPad Prism 6.0 software (GraphPad, San Diego, Calif., USA) and Microsoft Excel™. Ki values were based on the formula for one class of binding sites in homologous competition binding studies and the Cheng Prussoffs formula, respectively (DeBlasi et al., 1989). To determine the HSA binding potential, the fold change in affinity (as determined by IC50) was calculated as IC50 (plus HSA)/IC50 (minus HSA).
On to `CC[C@H](C)[C@H](NC(=O)[C@H](CO)NC(=O)[C@H](Cc1ccc(O)cc1)NC(=O)[C@H](CC(=O)O)NC(=O)[C@H](CO)NC(=O)[C@@H](NC(=O)[C@H](Cc1ccccc1)NC(=O)[C@@H](NC(=O)CNC(=O)[C@@H](N)CCC(=O)O)[C@@H](C)O)[C@@H](C)CC)C(=O)N[C@@H](C)C(=O)N[C@@H](CCSC)C(=O)N[C@@H](CC(=O)O)C(=O)N[C@@H](CCCCN)C(=O)N[C@H](C(=O)N[C@@H](Cc1c[nH]cn1)C(=O)N[C@@H](CCC(N)=O)C(=O)N[C@@H](CCC(N)=O)C(=O)N[C@@H](CC(=O)O)C(=O)N[C@@H](Cc1ccccc1)C(=O)N[C@@H](CCCCNC(=O)CCCCCCCCCCCCCCC(=O)O)C(=O)N[C@@H](CC(N)=O)C(=O)N[C@@H](Cc1c[nH]c2ccccc12)C(=O)N[C@@H](CC(C)C)C(=O)N[C@@H](CC(C)C)C(=O)N[C@@H](C)C(=O)N[C@@H](CCC(N)=O)C(=O)N[C@@H](CCCCN)C(N)=O)[C@@H](C)CC` [AT312, [hGIP(3-30)NH2[V23K]-C16diacid/23]] (H-EGTFISDYSIAMDKIHQQDFK(C16 diacid)NWLLAQK-NH2; N-terminus assumed), for which the Emax (as a rule, the size of the effect at its maximum, as opposed to the concentration needed) is 54%.
`CCCCCCCCCCCC(=O)NCCCC[C@H](NC(=O)[C@H](CCC(N)=O)NC(=O)[C@H](C)NC(=O)[C@H](CC(C)C)NC(=O)[C@H](CC(C)C)NC(=O)[C@H](Cc1c[nH]c2ccccc12)NC(=O)[C@H](CC(N)=O)NC(=O)[C@@H](NC(=O)[C@H](Cc1ccccc1)NC(=O)[C@H](CC(=O)O)NC(=O)[C@H](CCC(N)=O)NC(=O)[C@H](CCC(N)=O)NC(=O)[C@H](Cc1c[nH]cn1)NC(=O)[C@@H](NC(=O)[C@H](CCCCN)NC(=O)[C@H](CC(=O)O)NC(=O)[C@H](CCSC)NC(=O)[C@H](C)NC(=O)[C@@H](NC(=O)[C@H](CO)NC(=O)[C@H](Cc1ccc(O)cc1)NC(=O)[C@H](CC(=O)O)NC(=O)[C@H](CO)NC(=O)[C@@H](NC(=O)[C@H](Cc1ccccc1)NC(=O)[C@@H](N)[C@@H](C)O)[C@@H](C)CC)[C@@H](C)CC)[C@@H](C)CC)C(C)C)C(N)=O` [AT120, [hGIP(5-30)NH2—C12/30]]: the Emax was 0%.
The compound `CCCCCCCCCCCCCCCC(=O)NCCCC[C@H](NC(=O)[C@H](CCC(N)=O)NC(=O)[C@H](C)NC(=O)[C@H](CC(C)C)NC(=O)[C@H](CC(C)C)NC(=O)[C@H](Cc1c[nH]c2ccccc12)NC(=O)[C@H](CC(N)=O)NC(=O)[C@@H](NC(=O)[C@H](Cc1ccccc1)NC(=O)[C@H](CC(=O)O)NC(=O)[C@H](CCC(N)=O)NC(=O)[C@H](CCC(N)=O)NC(=O)[C@H](Cc1c[nH]cn1)NC(=O)[C@@H](NC(=O)[C@H](CCCCN)NC(=O)[C@H](CC(=O)O)NC(=O)[C@H](CCSC)NC(=O)[C@H](C)NC(=O)[C@@H](NC(=O)[C@H](CO)NC(=O)[C@H](Cc1ccc(O)cc1)NC(=O)[C@H](CC(=O)O)NC(=O)[C@H](CO)NC(=O)[C@@H](NC(=O)[C@H](Cc1ccccc1)NC(=O)[C@@H](NC(=O)CNC(=O)[C@@H](N)CCC(=O)O)[C@@H](C)O)[C@@H](C)CC)[C@@H](C)CC)[C@@H](C)CC)C(C)C)C(N)=O` [AT106, [hGIP(3-30)NH2—C16/30]] registered an Emax of 64%.
In the case of `CC[C@H](C)[C@H](NC(=O)[C@H](CO)NC(=O)[C@H](Cc1ccc(O)cc1)NC(=O)[C@H](CC(=O)O)NC(=O)[C@H](CO)NC(=O)[C@@H](NC(=O)[C@H](Cc1ccccc1)NC(=O)[C@@H](NC(=O)CNC(=O)[C@@H](N)CCC(=O)O)[C@@H](C)O)[C@@H](C)CC)C(=O)N[C@@H](C)C(=O)N[C@@H](CCSC)C(=O)N[C@@H](CC(=O)O)C(=O)N[C@@H](CCCCN)C(=O)N[C@H](C(=O)N[C@@H](Cc1c[nH]cn1)C(=O)N[C@@H](CCC(N)=O)C(=O)N[C@@H](CCC(N)=O)C(=O)N[C@@H](CC(=O)O)C(=O)N[C@@H](Cc1ccccc1)C(=O)N[C@H](C(=O)N[C@@H](CC(N)=O)C(=O)N[C@@H](CCCCNC(=O)CCCCCCCCCCCCCCC(=O)O)C(=O)N[C@@H](CC(C)C)C(=O)N[C@@H](CC(C)C)C(=O)N[C@@H](C)C(=O)N[C@@H](CCC(N)=O)C(=O)N[C@@H](CCCCN)C(N)=O)C(C)C)[C@@H](C)CC` [AT314, [hGIP(3-30)NH2[W25K]-C16diacid/25]] (H-EGTFISDYSIAMDKIHQQDFVNK(C16 diacid)LLAQK-NH2; N-terminus assumed), the Emax was found to be 28.4%.
The same measure, in the same setting: then `CC[C@H](C)[C@H](NC(=O)[C@H](CO)NC(=O)[C@H](Cc1ccc(O)cc1)NC(=O)[C@H](CC(=O)O)NC(=O)[C@H](CO)NC(=O)[C@@H](NC(=O)[C@H](Cc1ccccc1)NC(=O)[C@@H](NC(=O)CNC(=O)[C@@H](N)CCCCNC(=O)CCCCCCCCCCCCCCC(=O)O)[C@@H](C)O)[C@@H](C)CC)C(=O)N[C@@H](C)C(=O)N[C@@H](CCSC)C(=O)N[C@@H](CC(=O)O)C(=O)N[C@@H](CCCCN)C(=O)N[C@H](C(=O)N[C@@H](Cc1c[nH]cn1)C(=O)N[C@@H](CCC(N)=O)C(=O)N[C@@H](CCC(N)=O)C(=O)N[C@@H](CC(=O)O)C(=O)N[C@@H](Cc1ccccc1)C(=O)N[C@H](C(=O)N[C@@H](CC(N)=O)C(=O)N[C@@H](Cc1c[nH]c2ccccc12)C(=O)N[C@@H](CC(C)C)C(=O)N[C@@H](CC(C)C)C(=O)N[C@@H](C)C(=O)N[C@@H](CCC(N)=O)C(=O)N[C@@H](CCCCN)C(N)=O)C(C)C)[C@@H](C)CC` [AT294, [hGIP(3-30)NH2[E3K]-C16diacid/3]], with 74%; and `CCCCCCCCCCCCCCCC(=O)NCCCC[C@H](NC(=O)[C@@H](NC(=O)[C@H](CCCNC(=N)N)NC(=O)[C@H](CC(=O)O)NC(=O)[C@H](CCSC)NC(=O)[C@H](C)NC(=O)[C@@H](NC(=O)[C@H](CO)NC(=O)[C@H](Cc1ccc(O)cc1)NC(=O)[C@H](CC(=O)O)NC(=O)[C@H](CO)NC(=O)[C@@H](NC(=O)[C@H](Cc1ccccc1)NC(=O)[C@@H](NC(=O)CNC(=O)[C@@H](N)CCC(=O)O)[C@@H](C)O)[C@@H](C)CC)[C@@H](C)CC)[C@@H](C)CC)C(=O)N[C@@H](CCC(N)=O)C(=O)N[C@@H](CCC(N)=O)C(=O)N[C@@H](CC(=O)O)C(=O)N[C@@H](Cc1ccccc1)C(=O)N[C@H](C(=O)N[C@@H](CC(N)=O)C(=O)N[C@@H](Cc1c[nH]c2ccccc12)C(=O)N[C@@H](CC(C)C)C(=O)N[C@@H](CC(C)C)C(=O)N[C@@H](C)C(=O)N[C@@H](CCC(N)=O)C(=O)N[C@@H](CCCNC(=N)N)C(N)=O)C(C)C` [AT144, [hGIP(3-30)NH2[K16R; H18K; K30R]-C16/18]] (H-EGTFISDYSIAMDRIK(Palmitoyl)QQDFVNWLLAQR-NH2; N-terminus assumed), with 0%.

The assay is the same for the next values; noted with them: COS-7 cells; Table 1; read-out: cAMP agonism nM (EC50).
On to `CC[C@H](C)[C@H](NC(=O)[C@H](CO)NC(=O)[C@H](Cc1ccc(O)cc1)NC(=O)[C@H](CC(=O)O)NC(=O)[C@H](CO)NC(=O)[C@@H](NC(=O)[C@H](Cc1ccccc1)NC(=O)[C@@H](NC(=O)CNC(=O)[C@@H](N)CCC(=O)O)[C@@H](C)O)[C@@H](C)CC)C(=O)N[C@@H](C)C(=O)N[C@@H](CCSC)C(=O)N[C@@H](CC(=O)O)C(=O)N[C@@H](CCCCN)C(=O)N[C@H](C(=O)N[C@@H](Cc1c[nH]cn1)C(=O)N[C@@H](CCC(N)=O)C(=O)N[C@@H](CCC(N)=O)C(=O)N[C@@H](CC(=O)O)C(=O)N[C@@H](Cc1ccccc1)C(=O)N[C@H](C(=O)N[C@@H](CC(N)=O)C(=O)N[C@@H](CCCCNC(=O)CCCCCCCCCCCCCCC(=O)O)C(=O)N[C@@H](CC(C)C)C(=O)N[C@@H](CC(C)C)C(=O)N[C@@H](C)C(=O)N[C@@H](CCC(N)=O)C(=O)N[C@@H](CCCCN)C(N)=O)C(C)C)[C@@H](C)CC` [AT314, [hGIP(3-30)NH2[W25K]-C16diacid/25]] (H-EGTFISDYSIAMDKIHQQDFVNK(C16 diacid)LLAQK-NH2; N-terminus assumed), for which the EC50 (usually the midpoint of the concentration-response curve) was 62 nM.
Regarding `CCCCCCCCCCCCCCCCCC(=O)NCCCC[C@H](NC(=O)[C@H](CCC(N)=O)NC(=O)[C@H](C)NC(=O)[C@H](CC(C)C)NC(=O)[C@H](CC(C)C)NC(=O)[C@H](Cc1c[nH]c2ccccc12)NC(=O)[C@H](CC(N)=O)NC(=O)[C@@H](NC(=O)[C@H](Cc1ccccc1)NC(=O)[C@H](CC(=O)O)NC(=O)[C@H](CCC(N)=O)NC(=O)[C@H](CCC(N)=O)NC(=O)[C@H](Cc1c[nH]cn1)NC(=O)[C@@H](NC(=O)[C@H](CCCCN)NC(=O)[C@H](CC(=O)O)NC(=O)[C@H](CCSC)NC(=O)[C@H](C)NC(=O)[C@@H](NC(=O)[C@H](CO)NC(=O)[C@H](Cc1ccc(O)cc1)NC(=O)[C@H](CC(=O)O)NC(=O)[C@H](CO)NC(=O)[C@@H](NC(=O)[C@H](Cc1ccccc1)NC(=O)[C@@H](NC(=O)CNC(=O)[C@@H](N)CCC(=O)O)[C@@H](C)O)[C@@H](C)CC)[C@@H](C)CC)[C@@H](C)CC)C(C)C)C(N)=O` [AT115, [hGIP(3-30)NH2—C18/30]], the EC50 was 134 nM.

For the origin of these results see US11572399B2, “Long-acting GIP peptide analogues” (University of Copenhagen, priority 2017, dated 2023).
